Results reported in patent US20230220021A1, “CYCLIC PEPTIDE INHIBITORS OF PSD-95 AND USES THEREOF” (University of Copenhagen, priority 2020, published 2023).
Where a SMILES comes first, the peptide text is derived from it. The star is where a group is joined. 5TAMRA = CN(C)c1ccc2c(c1)Oc1cc(N(C)C)ccc1C21OC(=O)c2cc(C(=O)*)ccc21

Key:
[1] = target: T1, PSD-95-PDZ2 H225A (Homo sapiens, UniProt P78352, H225A); assay: FP saturation assay against PSD-95-PDZ2 Ala mutant H225A; format: binding; details: H225A mutation; TAMRA probes
T1 construct: measured against recombinantly expressed PSD-95-PDZ2 Ala mutants in FP saturation experiments; 7xHis (N); made in house; host or cells: Escherichia coli B21 pLys
Text: (§1) Protein expression. The pRSET plasmids encoding the (7× His)-PSD-95-PDZ2 wild type and (7× His)-PSD-95-PDZ2-V178C sequences were obtained as described previously.^38 The DNA constructs encoding the PSD-95-PDZ2 mutants (K165A, K168A, F172A, F1721, S173A, N180A, T192A, K193A, H225A, E226A, V229A K233A) were produced using Phusion® site-directed mutagenesis kit on the pRSET plasmid of the wild type PSD-95-PDZ2 and with the primers listed in Table 1. The PSD-95-PDZ2 mutants were transformed and expressed as previously described,^38 in Escherichia coli B21 pLys cells at 37° C. and 0.5 mM isopropyl-D-thiogalactopyranoside (IPTG). […] Protein concentration was measured by NanoDrop 1000 and mass determination of proteins was analyzed using an Agilent 6410 triple quadrupole LC-MS with a Poroshell column, 300SB-C18 2.1×75 mm in a linear gradient of 5% to 60% B, using a binary solvent system [A: H2O/MeCN/TFA, 94.9/5/0.1 and B: H2O/MeCN/TFA, 5/94.9/0.1] with a flow of 0.75 mL min^−1. […] The proteins were analyzed using the following gradient: from 5% to 60% B for 4 min. and from 60 to 100% B from 4 to 4.5 min.
(§2) Fluorescence polarization (FP). […] Fluorescence polarization was measured using a Safire 2 plate reader. […] Then, the polarization was fitted into a one-site binding model using Prism software 8.0 (GraphPad), from which the Kd can be measured. […]

[2] = target: T2, PSD-95-PDZ2 K165A (Homo sapiens, UniProt P78352, K165A); assay: FP saturation assay against PSD-95-PDZ2 Ala mutant K165A; format: binding; details: K165 mutation; TAMRA probes
T2 construct: measured against recombinantly expressed PSD-95-PDZ2 Ala mutants in FP saturation experiments; 7xHis (N); made in house; host or cells: Escherichia coli B21 pLys
Text: as §1, §2

[3] = target: T3, PSD-95-PDZ2 V229A (Homo sapiens, UniProt P78352, V229A); assay: FP saturation assay against PSD-95-PDZ2 Ala mutant V229A; format: binding; details: V229A mutation; TAMRA probes
T3 construct: measured against recombinantly expressed PSD-95-PDZ2 Ala mutants in FP saturation experiments; 7xHis (N); made in house; host or cells: Escherichia coli B21 pLys
Text: as §1, §2

[4] = system: HeLa cells stably expressing HaloGFP
Text: To assess the cellular permeability and delivery to the cytosol of the compounds as defined herein, the cellular chloroalkane penetration assay (CAPA) may be used (Peraro et al. 2018). This assay takes advantage of a modified haloalkane dehalogenase designed to covalently bind chloroalkane (CA) molecules. A HeLa cell line expressing a fusion protein comprising a HaloTag, a green fluorescent protein (GFP) and a mitochondria-targeting peptide is used to report cytosolic delivery. […] Cells expressing the HaloTag enzyme are incubated with CA-tagged peptides. When these CA-peptides penetrate the cell membrane and reach the cytosol, they will bind to and react with the HaloTag (pulse step). Following a washing step, the cells are incubated with a CA-tagged dye that quantitatively penetrates the cell membrane and reacts with remaining unreacted HaloTag sites (chase step). Flow cytometry is used to measure the fluorescence intensity of the cells and the measured fluorescence is inversely proportional to the amount of CA-peptides that reach the penetrated the cells and can thus be used to assess cytosolic delivery. The obtained data is commonly expressed as CP50 values, the concentration at which 50% cell penetration is observed. […]

T3 sequence (P78352 160-246 limits assumed, stated change not applied): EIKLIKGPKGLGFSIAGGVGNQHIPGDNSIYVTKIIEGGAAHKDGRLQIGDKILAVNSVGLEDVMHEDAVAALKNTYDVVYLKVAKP
T2 sequence (P78352 160-246 limits assumed, stated change not applied): as the sequence (P78352 160-246 limits assumed, stated change not applied) above
T1 sequence (P78352 160-246 limits assumed, stated change not applied): as the sequence (P78352 160-246 limits assumed, stated change not applied) above

| Molecule | fold decrease in affinity (Kd mutant normalized to PSD-95-PDZ2 WT) [1] | fold loss in affinity (Kd mutant normalized to PSD-95-PDZ2 WT) [2] | fold loss in affinity (Kd mutant normalized to PSD-95-PDZ2 WT) [3] | CP50 [4] |
| --- | --- | --- | --- | --- |
| CC[C@H](C)[C@H](NC(=O)[C@H](CO)NC(=O)[C@H](CO)NC(=O)[C@H](CC(C)C)NC(=O)[C@H](CCCCN)NC(=O)c1ccc2c(c1)C(=O)OC21c2ccc(N(C)C)cc2Oc2cc(N(C)C)ccc21)C(=O)N[C@@H](CCC(=O)O)C(=O)N[C@@H](CO)C(=O)N[C@@H](CC(=O)O)C(=O)N[C@H](C(=O)O)C(C)C [C-terminal GluN2B TAM RA probe] (5TAMRA-KLSSIESDV-OH; N-terminus assumed) | 5 fold | 5 fold | 2 fold | – |
| cyclo-(THLETTFTGDGTP(K-CA)TIRVTQpGQ) [SEQ ID NO: 427] | – | – | – | 31.1 ± 2.1 µM |
